SMILES strings stand for the structures.

For the first experiment, the target named is T1, human Nav1.8 (Homo sapiens, UniProt Q9Y5Y9).
T1 construct: expressed in transfected cells; host or cells: HEK293 (HEK293-Nav1.8)
T1 sequence (Q9Y5Y9 whole entry): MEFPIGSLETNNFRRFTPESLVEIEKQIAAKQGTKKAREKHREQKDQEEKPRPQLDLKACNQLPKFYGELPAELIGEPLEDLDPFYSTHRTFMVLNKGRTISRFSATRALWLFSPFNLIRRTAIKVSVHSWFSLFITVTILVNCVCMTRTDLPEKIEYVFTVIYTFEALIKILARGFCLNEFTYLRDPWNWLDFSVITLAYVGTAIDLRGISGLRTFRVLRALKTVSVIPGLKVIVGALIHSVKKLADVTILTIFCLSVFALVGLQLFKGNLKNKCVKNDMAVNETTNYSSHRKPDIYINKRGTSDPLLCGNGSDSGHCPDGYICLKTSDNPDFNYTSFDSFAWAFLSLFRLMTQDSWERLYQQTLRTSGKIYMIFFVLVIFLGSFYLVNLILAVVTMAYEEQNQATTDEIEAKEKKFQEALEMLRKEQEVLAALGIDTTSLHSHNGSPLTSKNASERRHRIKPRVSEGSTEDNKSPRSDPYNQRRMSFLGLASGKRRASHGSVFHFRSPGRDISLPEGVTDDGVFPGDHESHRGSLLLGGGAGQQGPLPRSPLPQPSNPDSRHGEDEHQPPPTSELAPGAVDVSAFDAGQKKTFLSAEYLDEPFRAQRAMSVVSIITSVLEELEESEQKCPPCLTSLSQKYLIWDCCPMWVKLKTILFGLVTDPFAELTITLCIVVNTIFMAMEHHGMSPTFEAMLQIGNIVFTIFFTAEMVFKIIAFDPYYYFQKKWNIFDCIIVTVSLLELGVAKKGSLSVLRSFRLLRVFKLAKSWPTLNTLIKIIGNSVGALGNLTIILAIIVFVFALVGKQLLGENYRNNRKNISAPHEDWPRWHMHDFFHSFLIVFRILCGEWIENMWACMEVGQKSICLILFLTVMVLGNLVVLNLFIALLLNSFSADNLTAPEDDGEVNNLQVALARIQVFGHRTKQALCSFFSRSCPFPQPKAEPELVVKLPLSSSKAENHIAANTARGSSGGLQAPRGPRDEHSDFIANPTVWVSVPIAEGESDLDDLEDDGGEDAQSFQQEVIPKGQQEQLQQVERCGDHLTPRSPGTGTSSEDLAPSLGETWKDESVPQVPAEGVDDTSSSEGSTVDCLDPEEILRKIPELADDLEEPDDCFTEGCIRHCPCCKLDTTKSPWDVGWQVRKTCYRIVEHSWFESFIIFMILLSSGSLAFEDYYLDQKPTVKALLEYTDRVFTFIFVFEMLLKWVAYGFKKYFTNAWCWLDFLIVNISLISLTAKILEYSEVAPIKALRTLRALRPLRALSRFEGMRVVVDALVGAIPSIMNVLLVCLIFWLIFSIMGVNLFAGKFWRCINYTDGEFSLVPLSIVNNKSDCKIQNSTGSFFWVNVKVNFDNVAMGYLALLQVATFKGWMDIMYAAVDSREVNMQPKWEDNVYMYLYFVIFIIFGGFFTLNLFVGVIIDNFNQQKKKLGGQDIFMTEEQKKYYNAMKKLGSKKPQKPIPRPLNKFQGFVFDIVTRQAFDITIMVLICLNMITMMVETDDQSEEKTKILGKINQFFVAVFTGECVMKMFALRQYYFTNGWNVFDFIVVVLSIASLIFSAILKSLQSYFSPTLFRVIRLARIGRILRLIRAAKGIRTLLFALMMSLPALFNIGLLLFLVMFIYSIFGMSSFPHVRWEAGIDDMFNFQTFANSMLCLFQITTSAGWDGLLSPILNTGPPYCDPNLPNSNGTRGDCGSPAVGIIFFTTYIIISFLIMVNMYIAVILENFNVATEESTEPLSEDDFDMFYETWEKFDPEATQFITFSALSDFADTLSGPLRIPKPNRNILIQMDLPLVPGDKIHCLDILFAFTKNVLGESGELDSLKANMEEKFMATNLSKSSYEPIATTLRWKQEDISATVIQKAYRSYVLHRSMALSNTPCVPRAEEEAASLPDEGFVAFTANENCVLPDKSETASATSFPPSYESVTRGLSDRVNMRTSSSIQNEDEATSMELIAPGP
T1 sequence (Q07699 19-218 partner): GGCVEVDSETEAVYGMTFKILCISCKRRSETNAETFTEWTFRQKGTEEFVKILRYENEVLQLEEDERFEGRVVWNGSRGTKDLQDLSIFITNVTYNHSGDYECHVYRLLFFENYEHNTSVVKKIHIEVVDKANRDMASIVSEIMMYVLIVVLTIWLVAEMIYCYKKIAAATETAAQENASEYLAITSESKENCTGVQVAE
The experiment can be described thus: Nav1.8 sodium channels assay, QPatch 48 HTX electrophysiology in HEK293-Nav1.8 cells. It is filed as cell-based. Conditions: Table 1; HEK293-Nav1.8, QPatch 48 HTX, half inactivation state voltage protocol (V1/2); single run or average of two or more runs; read-out: Nav1.8 pIC50 (converted). An outline of the steps:
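IC50 came from 6-8 point curves of P2 current amplitude, normalized to baseline and a positive reference, and corrected for run-down using vehicle-only wells. Automated patch clamp used HEK293-Nav1.8 (with Navβ1 and TREK1) at pH 7.4 outside and CsF-based solution inside. An 8 s inactivating step at −46 mV preceded the 0 mV test pulse, repeated at 0.07 Hz.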
(The patch-clamp technique gives a direct electrical read-out from membranes.)
Consider `Cc1cc(F)ccc1N1CN(c2ccc(=O)[nH]c2)C(=O)c2ccc(C(F)(F)F)cc21` [drawing 261, 1-(4-fluoro-2-methylphenyl)-3-(6-oxo-1,6-dihydropyridin-3-yl)-7-(trifluoromethyl)-2,3-dihydroquinazolin-4(1H)-one], for which the IC50 was 0.126 µM.

In the case of `O=C1c2ccc(C(F)(F)F)cc2N(c2ccc(F)cc2)CN1c1ccc(=O)[nH]c1` [drawing 262, 1-(4-fluorophenyl)-3-(6-oxo-1,6-dihydropyridin-3-yl)-7-(trifluoromethyl)-2,3-dihydroquinazolin-4(1H)-one], the IC50 was 0.398 µM.

As to `O=C1c2ccc(C(F)(F)F)cc2N(C2CCCCC2)CN1c1ccc(=O)[nH]c1` [drawing 263, 1-cyclohexyl-3-(6-oxo-1,6-dihydropyridin-3-yl)-7-(trifluoromethyl)-2,3-dihydroquinazolin-4(1H)-one], the IC50 was 6.31 µM.

Consider `COc1cc(F)ccc1N1CN(c2ccc(=O)[nH]c2)C(=O)c2ccc(C(F)(F)F)cc21` [drawing 264, 1-(4-fluoro-2-methoxyphenyl)-3-(6-oxo-1,6-dihydropyridin-3-yl)-7-(trifluoromethyl)-2,3-dihydroquinazolin-4(1H)-one], for which the IC50 was 0.316 µM.

Regarding `Cc1cc(F)ccc1N1CN(c2ccc(=O)n(C)c2)C(=O)c2ccc(C(F)(F)F)cc21` [drawing 265], the IC50 is 2 µM.

With `Cc1cc(F)ccc1N1CN(c2ccc(=O)[nH]c2C)C(=O)c2cc(C(F)(F)F)cnc21` [drawing 266, 1-(4-fluoro-2-methylphenyl)-3-(2-methyl-6-oxo-1,6-dihydropyridin-3-yl)-6-(trifluoromethyl)-2,3-dihydropyrido[2,3-d]pyrimidin-4(1H)-one], the IC50 is 0.158 µM.

On to `Cc1cc(F)ccc1N1CN(c2ccc(=O)[nH]c2)C(=O)c2c1cccc2C(F)(F)F` [drawing 267, 1-(4-fluoro-2-methylphenyl)-3-(6-oxo-1,6-dihydropyridin-3-yl)-5-(trifluoromethyl)-2,3-dihydroquinazolin-4(1H)-one], for which the IC50 is 2.51 µM.

In the case of `Cc1cc(F)ccc1N1CN(c2ccc(=O)[nH]c2C)C(=O)c2ccc(C(F)(F)F)cc21` [drawing 268, 1-(4-fluoro-2-methylphenyl)-3-(2-methyl-6-oxo-1,6-dihydropyridin-3-yl)-7-(trifluoromethyl)-2,3-dihydroquinazolin-4(1H)-one], the IC50 was 0.02 µM.

Consider `Cc1cc(F)ccc1N1CN(c2ccc(=O)[nH]c2)C(=O)c2cc(C(F)(F)F)ccc21` [drawing 269, 1-(4-fluoro-2-methylphenyl)-3-(6-oxo-1,6-dihydropyridin-3-yl)-6-(trifluoromethyl)-2,3-dihydroquinazolin-4(1H)-one], for which the IC50 was 0.316 µM.

With `Cc1cc(F)cc(C)c1N1CN(c2ccc(=O)[nH]c2)C(=O)c2ccc(C(F)(F)F)cc21` [drawing 270, 1-(4-fluoro-2,6-dimethylphenyl)-3-(6-oxo-1,6-dihydropyridin-3-yl)-7-(trifluoromethyl)-2,3-dihydroquinazolin-4(1H)-one], the IC50 was 2.51 µM.

For `Cc1cc(F)ccc1N1CN(c2c[nH]c(=O)c(C)c2)C(=O)c2ccc(C(F)(F)F)cc21` [drawing 271, 1-(4-fluoro-2-methylphenyl)-3-(5-methyl-6-oxo-1,6-dihydropyridin-3-yl)-7-(trifluoromethyl)-2,3-dihydroquinazolin-4(1H)-one], the IC50 is 0.631 µM.

Regarding `O=C1c2ccc(C(F)(F)F)cc2N(Cc2ccc(F)cc2)CN1c1ccc(=O)[nH]c1` [drawing 272, 1-(4-fluorobenzyl)-3-(6-oxo-1,6-dihydropyridin-3-yl)-7-(trifluoromethyl)-2,3-dihydroquinazolin-4(1H)-one], the IC50 was 7.94 µM.

On to `Cc1cc(=O)[nH]cc1N1CN(c2ccc(F)cc2C)c2cc(C(F)(F)F)ccc2C1=O` [drawing 273, 1-(4-fluoro-2-methylphenyl)-3-(4-methyl-6-oxo-1,6-dihydropyridin-3-yl)-7-(trifluoromethyl)-2,3-dihydroquinazolin-4(1H)-one], for which the IC50 was 0.398 µM.

Turning to `Cc1cc(OC(F)(F)F)ccc1N1CN(c2ccc(=O)[nH]c2C)C(=O)c2cc(C(F)(F)F)cnc21` [drawing 274, 1-(2-methyl-4-(trifluoromethoxy)phenyl)-3-(2-methyl-6-oxo-1,6-dihydropyridin-3-yl)-6-(trifluoromethyl)-2,3-dihydropyrido[2,3-d]pyrimidin-4(1H)-one], the IC50 is 0.0251 µM.

For the compound `Cc1cc(F)ccc1N1c2cc(C(F)(F)F)ccc2C(=O)N(c2ccc(=O)[nH]c2)C1C` (centres unmarked) [drawing 275, 1-(4-fluoro-2-methylphenyl)-2-methyl-3-(6-oxo-1,6-dihydropyridin-3-yl)-7-(trifluoromethyl)-2,3-dihydroquinazolin-4(1H)-one], the IC50 is 1.26 µM.

For the compound `O=C1c2ccc(C(F)(F)F)cc2N(c2ccc(F)cc2Cl)CN1c1ccc(=O)[nH]c1` [drawing 276, 1-(2-chloro-4-fluorophenyl)-3-(6-oxo-1,6-dihydropyridin-3-yl)-7-(trifluoromethyl)-2,3-dihydroquinazolin-4(1H)-one], the IC50 was 0.501 µM.

Take `O=C1c2ccc(C(F)(F)F)cc2N(c2ccc(F)cc2OCCO)CN1c1ccc(=O)[nH]c1` [drawing 277, 1-(4-fluoro-2-(2-hydroxyethoxy)phenyl)-3-(6-oxo-1,6-dihydropyridin-3-yl)-7-(trifluoromethyl)-2,3-dihydroquinazolin-4(1H)-one]: the IC50 is 6.31 µM.

Consider `O=C1c2ccc(C(F)(F)F)cc2N(c2ccc(F)cc2F)CN1c1ccc(=O)[nH]c1` [drawing 278, 1-(2,4-difluorophenyl)-3-(6-oxo-1,6-dihydropyridin-3-yl)-7-(trifluoromethyl)-2,3-dihydroquinazolin-4(1H)-one], for which the IC50 was 0.794 µM.

Turning to `Cc1cc(F)ccc1N1CN(c2ccc(=O)[nH]c2)C(=O)c2ccc(C#N)cc21` [drawing 279, 1-(4-fluoro-2-methylphenyl)-4-oxo-3-(6-oxo-1,6-dihydropyridin-3-yl)-1,2,3,4-tetrahydroquinazoline-7-carbonitrile], the IC50 is 1.58 µM.

The experiment is the same for the next values; noted with them: at least one set of experimental runs; read-out: average pIC50 value against Nav1.8 (converted).
`Cc1[nH]c(=O)ccc1N1CN([C@@H]2CCCC[C@H]2C)c2cc(C(F)(F)F)ccc2C1=O` [Example 280, 3-(2-Methyl-6-oxo-1,6-dihydropyridin-3-yl)-1-((1R,2R)-2-methylcyclohexyl)-7-(trifluoromethyl)-2,3-dihydroquinazolin-4(1H)-one]: the IC50 is 0.126 to 0.631 µM.

As to `Cc1[nH]c(=O)ccc1N1CN([C@H]2CCOC[C@H]2C)c2cc(C(F)(F)F)ccc2C1=O` [Example 281, 3-(2-Methyl-6-oxo-1,6-dihydropyridin-3-yl)-1-((3S,4S)-3-methyltetrahydro-2H-pyran-4-yl)-7-(trifluoromethyl)-2,3-dihydroquinazolin-4(1H)-one], the IC50 was 0.126 to 0.631 µM.

As to `Cc1[nH]c(=O)ccc1N1CN([C@@H]2CCOC[C@@H]2C)c2cc(C(F)(F)F)ccc2C1=O` [Example 282, 3-(2-Methyl-6-oxo-1,6-dihydropyridin-3-yl)-1-((3R,4R)-3-methyltetrahydro-2H-pyran-4-yl)-7-(trifluoromethyl)-2,3-dihydroquinazolin-4(1H)-one], the IC50 is 0.794 to 7.94 µM.

For `Cc1[nH]c(=O)ccc1N1CN([C@H]2CCOC[C@@H]2C)c2cc(C(F)(F)F)ccc2C1=O` [Example 283, 3-(2-Methyl-6-oxo-1,6-dihydropyridin-3-yl)-1-((3R,4S)-3-methyltetrahydro-2H-pyran-4-yl)-7-(trifluoromethyl)-2,3-dihydroquinazolin-4(1H)-one], the IC50 was 0.126 to 0.631 µM.

`Cc1[nH]c(=O)ccc1N1CN([C@@H]2CCOC[C@H]2C)c2cc(C(F)(F)F)ccc2C1=O` [Example 284, 3-(2-Methyl-6-oxo-1,6-dihydropyridin-3-yl)-1-((3S,4R)-3-methyltetrahydro-2H-pyran-4-yl)-7-(trifluoromethyl)-2,3-dihydroquinazolin-4(1H)-one]: the IC50 is 0.794 to 7.94 µM.

As to `Cc1cc(F)ccc1N1CN([C@H]2CCC(=O)N[C@H]2C)C(=O)c2ccc(C(F)(F)F)cc21` [Example 287, 1-(4-Fluoro-2-methylphenyl)-3-((2S,3S)-2-methyl-6-oxopiperidin-3-yl)-7-(trifluoromethyl)-2,3-dihydroquinazolin-4(1H)-one], the IC50 is 0.794 to 7.94 µM.

For `Cc1cc(F)ccc1N1CN([C@@H]2CCC(=O)N[C@@H]2C)C(=O)c2ccc(C(F)(F)F)cc21` [Example 288, 1-(4-Fluoro-2-methylphenyl)-3-((2R,3R)-2-methyl-6-oxopiperidin-3-yl)-7-(trifluoromethyl)-2,3-dihydroquinazolin-4(1H)-one], the IC50 is 0.126 to 0.631 µM.

On to `Cc1cc(F)ccc1N1CN(c2ccc(=O)[nH]c2C)C(=O)c2cc(C(F)(F)F)ccc21` [Example 297, 1-(4-fluoro-2-methylphenyl)-3-(2-methyl-6-oxo-1,6-dihydropyridin-3-yl)-6-(trifluoromethyl)-2,3-dihydroquinazolin-4(1H)-one], for which the IC50 is at most 0.1 µM.

As for `Cc1cc(OC(F)(F)F)ccc1N1CN(c2ccc(=O)[nH]c2C)C(=O)c2cc(C(F)(F)F)cnc21` [Example 298, 1-(2-methyl-4-(trifluoromethoxy)phenyl)-3-(2-methyl-6-oxo-1,6-dihydropyridin-3-yl)-6-(trifluoromethyl)-2,3-dihydropyrido[2,3-d]pyrimidin-4(1H)-one], the IC50 is at most 0.1 µM.

For the compound `Cc1cc(F)ccc1N1CN(c2ccc(=O)[nH]c2C)C(=O)c2cc(C(F)(F)F)cnc21` [Example 299, 1-(4-fluoro-2-methylphenyl)-3-(2-methyl-6-oxo-1,6-dihydropyridin-3-yl)-6-(trifluoromethyl)-2,3-dihydropyrido[2,3-d]pyrimidin-4(1H)-one], the IC50 was 0.126 to 0.631 µM.

Source of the values: patent US20230103791A1 (GLAXOSMITHKLINE INTELLECTUAL PROPERTY DEVELOPMENT LIMITED, priority 2019, published 2023).
